Results as given in patent US20220096609A1 (priority 2019, published 2022).
Entries after “also recorded” stand apart in the source; their conditions may differ.

Experiments:
[1] = system: mouse phrenic nerve hemidiaphragm; set-up: species or system CD-1 mice
[2] = system: mouse phrenic nerve hemi-diaphragm; set-up: species or system CD-1 mice

| Compound | faster BoNT/A onset (time required for 50% paralysis) [1] | increase of (initial) amplitude of muscle tension [1] | onset of paralysis compared with 30 pM BoNT/A in the absence of 4-AP [1] | higher concentration of toxin required to induce an equivalent reduction in time for 90% paralysis as caused by DAP [2] [times] | muscle denervation compared with BoNT/E alone [2] | muscle tension response / neurotransmission [2] | onset of neuroparalysis [2] | reduction of the therapeutically effective amount of BoNT/E compared with BoNT/E administered alone [2] | time taken for 50% paralysis (TTP50) [2] | time taken for 90% paralysis (TTP90) [2] | uptake of BoNT/E [2] |
| --- | --- | --- | --- | --- | --- | --- | --- | --- | --- | --- | --- |
| Nc1ccncc1 [4-AP, 4-aminopyridine] | approximately 25% | approximately 2.5 fold | progressed faster; also recorded: increased the onset of paralysis | – | – | – | – | – | – | – | – |
| Nc1ccncc1N [DAP, 3,4-diaminopyridine] | – | – | – | 6 | faster muscle denervation | elevated muscle tension response; also recorded: enhanced neurotransmission | faster onset of neuroparalysis | 25-600% | faster time | faster time | increased uptake |
